The values below come from patent US5232937A, “Derivatives of N-phenylbenzamide with anti-ulcer and anti-allergy” (Rotta Research Laboratorium SpA., priority 1989, dated 1993).

Each structure is given as a SMILES string. Like-named read-outs stand apart in the source and are kept apart here. Bounds are passed on as bounds.

In assay [1] the test system is gastric acid secretion induced by pentagastrin. Kind of assay: Anti-secretive activity, gastric acid secretion stimulated with pentagastrin (Lai method, modified). It counts as in vivo. To be noted: Rattus norvegicus, iv, 1 h; I.V.; rats; pentagastrin 30 mcg/kg/h; read-out: ED50, antagonistic activity towards secretion induced by pentagastrin. The method, then: (§1) The anti-secretive activities were determined in rats with the use of male animals weighing approximately 200 g, anaesthetised with urethane. Gastric secretion was stimulated with pentagastrin, histamine or cabachol.
(§2) After tracheotomy, cannulae were inserted in the aesophagus and the duodenum. These were perfused with a tepid solution (37° C.) which was passed through the stomach at a constant flow rate of 1 ml/minute by means of a peristaltic pump. After stabilisation for 20 minutes, the stimulant, dissolved in a physiological solution, was perfused for 120 minutes at the dose indicated in Table 1 in a volume of 0.95 ml/hour. After 60 minutes of perfusion (base stimulation) the product under test was administered intravenously (I.V.) in a bolus and the perfusion of the stimulant was continued for a further 60 minutes. The acid secretion was recorded continuously as a function of time.
(§3) The activity of the product was evaluated as a percentage reduction in the acid secreted after the administration of the product against the base acidity measured in the first 60 minutes of collection which was in the presence of the stimulant alone.

For assay [2], the system named is gastric acid secretion induced by histamine. In words: Anti-secretive activity, gastric acid secretion stimulated with histamine (Lai method, modified). Format: in vivo. The following applies: Rattus norvegicus, iv, 1 h; I.V.; rats; histamine 2.3 mg/kg/h; read-out: ED50, antagonistic activity towards secretion induced by histamine. How it is done:
as §1, §2, §3

For assay [3], the system named is gastric acid secretion induced by carbachol. In words: Anti-secretive activity, gastric acid secretion stimulated with carbachol (Lai method, modified). It counts as in vivo. To be noted: Rattus norvegicus, iv, 1 h; I.V.; rats; carbachol 30 mcg/kg/h; read-out: ED50, antagonistic activity towards secretion induced by carbachol. How it is done: as §1, §2, §3
For assay [4], the system named is ulcer caused by ethanol. Kind of assay: Cytoprotective activity, ulcer caused by ethanol. Format: in vivo, rat. The following applies: for ED50: Rattus norvegicus, iv, 1 h, read-out: ED50, cytoprotective activity, ulcer caused by ethanol; for protective activity (in words): ulcer models of Table 2 (ethanol, 25% NaCl, stress). The method, then:
(§4) The drugs under test were administered intravenously 15 minutes before the irritant. […] It consists of the assignment of arbitrary points according to the number and gravity of the lesions in accordance with the following criterion:
(§5) 1 if the length of the necrotic area is 2 mm
(§6) 2 if the length of the necrotic area is between 2 and 4 mm
(§7) 3 if the length of the necrotic area is 4 mm
(§8) 5 if the length of the area is 4 mm with a perforated ulcer.
(§9) A lesion index is then obtained by adding the number of lesions multiplied by their respective points.

The subject of assay [5] is ulcer caused by 25% NaCl. In words: Cytoprotective activity, ulcer caused by 25% NaCl. It counts as in vivo. To be noted: Rattus norvegicus, iv, 1 h, read-out: ED50, cytoprotective activity, ulcer caused by 25% NaCl. The method, then: as §4, §5, §6, §7, §8, §9
Assay [6] relates to ulcer caused by stress. In words: Cytoprotective activity, ulcer caused by stress (containment). Format: in vivo. To be noted: Rattus norvegicus, im, 5 h, read-out: ED50, cytoprotective activity, ulcer caused by stress. The method, then: as §5, §6, §7, §8, §9
Male rats weighing approximately 150 g which had been starved for 24 hours were imprisoned in individual cylindrical cages and immersed up to the xiphoid process in cool water kept thermostatically at 19° C. The compounds were administrated intramuscularly (I.M.) 15 minutes before the start of the test.
5 hours after the start of their containment, the animals were killed, their stomachs were removed and a quantitative evaluation was then carried out as described above.

The subject of assay [7] is passive cutaneous anaphylaxis reaction. Kind of assay: Passive cutaneous anaphylaxis (PCA) in rats, modified Goose and Blair method. To be noted: for ED50: Rattus norvegicus, iv, 0.5 h, I.V., rats. It counts as in vivo, rat. The method, then: Male rats weighing approximately 400 g were treated with 10 mg/kg of grade V egg albumen dissolved in 1 ml of a physiological solution by I.M. and intraperitoneal (I.P.) routes. With one mg of Freund's complete adjuvent solution. 13 days after sensitisation, the animals were killed under […] anaesthesia, the blood was taken and the serum was kept at -70° C. after its titre of IgE specific to egg albumen had been assayed. On the basis of type, 2 intradermal injections (i.d.) of 0.1 ml of the antiserum, titrated and suitably diluted were given into the shaved backs of 200 g male rats at a time -24h.
The products under test were administered I.V. 20 minutes of the antigen. The animals were killed 30 minutes after the challenge, the skin of the back was turned inside out and the larger and smaller diameters of each blemish were measured. In practice the response of each animal was evaluated as the average of four diameters.

In assay [8] the test system is actively-sensitised guinea-pig lung fragments (histamine release). In words: Anaphylaxis in vitro, histamine release from actively sensitised guinea-pig lung fragments (modified Broklehurst method). It counts as cell-based. To be noted: for inhibition at 10 µg/mL / inhibition at 30 µg/mL / inhibition at 100 µg/mL / inhibition at 300 µg/mL / EC50: Cavia porcellus; for inhibition at 10 µg/mL: 10 mcg/ml; for inhibition at 10 µg/mL / inhibition at 30 µg/mL / inhibition at 100 µg/mL / inhibition at 300 µg/mL: read-out: % inhibition of anaphylactic histamine release; for inhibition at 30 µg/mL: 30 mcg/ml; for inhibition at 100 µg/mL: 100 mcg/ml; for inhibition at 300 µg/mL: 300 mcg/ml; for EC50: guinea-pig lung fragments in vitro, read-out: EC50, anaphylactic histamine release. How it is done:
Male guinea pigs weighing approximately 250 g were sensitised with […] of grade V egg albumen dissolved in 1 ml of physiological solution and administered (1 ml/kg) I.P. and subcutaneously (S.C.). After three weeks the animals were killed under ethereal anaesthesia by bleeding. The lungs were removed and immersed in Tyrode solution at 4° C. Homogeneous fragments approximately 2 mm long were cut and divided into test pieces containing approximately 400 mg of tissue and […] of Tyrode. The samples were preincubated at 37° C. for 15 minutes with the compounds under test dissolved in 0.1 of Tyrode and incubated for a further 20 minutes at 37° C. The reaction was stopped by cooling in ice.
0.8 ml of the supernatant liquid were treated with perchloric acid and centrifuged to remove the proteins. The supernatant liquid was then made alkaline with 5N NaOH, the histamine was extracted with n-butanol and, after suitable dilution with n-heptane, was extracted again in dilute HCl.
O-phthalaldehyde was added to the samples and their fluorescence was measured with a fluorimeter at 450 mu after activation at 360 mu.
The histamine concentration in the samples was obtained from a standard straight-line graph in the range 50-800 ng/ml of histamine.

Setting [9] is: I.V., rats, 15 minutes before ethanol.
Setting [10] is: I.V., rats, 15 minutes before NaCl.
The mark [11] stands for this setting: I.M., rats, 15 minutes before the test.

As usually defined, the ED50 is the dose that gives a 50% effect, or the effect in half of the subjects. As for `O=C(O)c1cc(NC(=O)c2ccc([N+](=O)[O-])cc2)cc(C(=O)O)c1` [Compound 2, N-(3,5-dicarboxy)phenyl-4-nitrobenzamide], the figures for the 50% effective dose (ED50) in assay [1], in assay [2] and in assay [3] were 91 mg/kg, 109 mg/kg and 68 mg/kg, respectively.

Regarding `O=C(O)c1cc(NC(=O)c2ccc(Cl)cc2)cc(C(=O)O)c1` [Compound 3, N-(3,5-dicarboxy)phenyl-4-chlorobenzamide], the values for the ED50 in assay [1], in assay [2] and in assay [3] were 115 mg/kg, 108 mg/kg and 104 mg/kg, respectively.

For the compound `Cc1ccc(C(=O)Nc2cc(C(=O)O)cc(C(=O)O)c2)cc1` [Compound 4, N-(3,5-dicarboxy)phenyl-4-methylbenzamide], the 50% effective dose (ED50) is 189 mg/kg in assay [1], more than 250 mg/kg in assay [2] and 216 mg/kg in assay [3].

Take `COc1ccc(C(=O)Nc2cc(C(=O)O)cc(C(=O)O)c2)cc1` [Compound 5, N-(3,5-dicarboxy)phenyl-4-methoxybenzamide]: the results for the ED50 in assay [1], in assay [2] and in assay [3] were 223 mg/kg, 240 mg/kg and more than 250 mg/kg, respectively.

With `O=C(O)c1cc(NC(=O)c2ccc([N+](=O)[O-])c(O)c2)cc(C(=O)O)c1` [Compound 6, N-(3,5-dicarboxy)phenyl-3-hydroxy-4-nitrobenzamide], the values for the median effective dose (ED50) in assay [1], in assay [2] and in assay [3] were 210 mg/kg, 205 mg/kg and 186 mg/kg, respectively.

For the compound `O=C(O)c1cc(NC(=O)c2ccc(O)c(O)c2)cc(C(=O)O)c1` [Compound 7, N-(3,5-dicarboxy)phenyl-3,4-di-hydroxybenzamide], the ED50 came out at 97 mg/kg in assay [1], 102 mg/kg in assay [2] and 90 mg/kg in assay [3].

In the case of `COc1ccc(C(=O)Nc2cc(C(=O)O)cc(C(=O)O)c2)cc1OC` [Compound 8, N-(3,5-dicarboxy)phenyl-3,4-dimethoxybenzamide], the ED50 in assay [1] was found to be 208 mg/kg; in assay [2], 222 mg/kg; in assay [3], 188 mg/kg.

In the case of `COc1cc(C(=O)Nc2cc(C(=O)O)cc(C(=O)O)c2)ccc1[N+](=O)[O-]` [Compound 9, N-(3,5-dicarboxy)phenyl-3-methoxy-4-nitrobenzamide], the ED50 in assay [1] turned out to be 88 mg/kg; in assay [2] it was 100 mg/kg; in assay [3] it was 88 mg/kg.

Consider `N#Cc1ccc(C(=O)Nc2ccc(-c3nn[nH]n3)cc2)cc1` [Compound 10, N-°4-(5-tetrazolyl)e-phenyl-4-cyanobenzamide], for which the results for the ED50 in assay [1], in assay [2] and in assay [3] were 42 mg/kg, 45 mg/kg and 39 mg/kg, respectively.

Broadly, the inhibition is how much of the control response was suppressed. By EC50 is commonly meant the midpoint of the concentration-response curve. `O=C(O)c1cc(NC(=O)c2ccc(-c3nn[nH]n3)cc2)cc(C(=O)O)c1` [Compound 11, N-(3,5-dicarboxy)phenyl-4-(5-tetrazolyl)-benzamide]: the ED50 in assay [1] was 33 mg/kg; in assay [2] it was 41 mg/kg; in assay [3], 50 mg/kg; in assay [4] (setting [9]) it was 7 mg/kg; in assay [5] (setting [10]), 29 mg/kg; in assay [6] (setting [11]), 65 mg/kg. Further, in assay [7], the ED50 was found to be 42.6 mg/kg. For the same compound, the “% inhibition of passive cutaneous anaphylaxis” value (“% inhibition” below) in assay [7] (50 mg/kg I.V.) is recorded as 53.3%; in assay [7] (100 mg/kg I.V.), 66%; in assay [7] (150 mg/kg I.V.) it was 74.7%. Further, the inhibition at 10 µg/mL in assay [8] was 11.8%. Further, in assay [8], the inhibition at 30 µg/mL turned out to be 27.2%. Moreover, the inhibition at 100 µg/mL in assay [8] amounted to 42.4%. For the same compound, in assay [8], the inhibition at 300 µg/mL was found to be 53.3%. The EC50 in assay [8] was 216 µg/mL. The “activity in the in vitro anaphylaxis model relative to DSCG” value in assay [8] (compared with DSCG) was 10-15 times.

`N#Cc1ccc(C(=O)Nc2cc(C(N)=O)cc(C(=O)O)c2)cc1` [Compound 13, N-(3-carboxy-5-carbamoyl)phenyl-4-cyanobenzamide]: the ED50 in assay [1] was found to be 68 mg/kg; in assay [2], 73 mg/kg; in assay [3], 65 mg/kg.

Turning to `NC(=O)c1cc(NC(=O)c2ccc(-c3nn[nH]n3)cc2)cc(C(=O)O)c1` [Compound 14, N-(3-carboxy-5-carbamoyl)phenyl-4-(5-tetrazolyl)-benzamide], the ED50 in assay [1] amounted to 51 mg/kg; in assay [2], 48 mg/kg; in assay [3], 48 mg/kg.

For the compound `O=C(O)c1cc(=O)c2c(OCC(O)COc3cccc4oc(C(=O)O)cc(=O)c34)cccc2o1` [DSCG, Di-sodium chromoglycate, reference compound], the “% inhibition” value in assay [7] (50 mg/kg I.V.) is on record as 16.0%. Besides, in assay [7] (100 mg/kg I.V.), the “% inhibition” value is recorded as 22.1%. In assay [7] (150 mg/kg I.V.), the “% inhibition” value is 57.5%. The compound further gave a 50% effective dose (ED50) in assay [7] of 153 mg/kg. Besides, in assay [8] (10-300 mcg/ml), the “dose relation of activity (in words)” value is recorded as “poorly dose-related” and the “inhibitory effect on the release of histamine, all doses tested” value is recorded as not above 50%. Also, in assay [8], the inhibition at 10 µg/mL was found to be 6.8%, the inhibition at 30 µg/mL amounted to 19.7%, the inhibition at 100 µg/mL stood at 17.8% and the inhibition at 300 µg/mL amounted to 41.2%. The EC50 in assay [8] stood at 1460 µg/mL.

As for `CN1CCN(CC(=O)N2c3ccccc3C(=O)Nc3cccnc32)CC1` [PIRENZEPINE, pirenzepine, reference compound], the ED50 in assay [4] (setting [9]) was more than 50 mg/kg; in assay [5] (setting [10]) it was more than 50 mg/kg; in assay [6] (setting [11]), more than 75 mg/kg. For the same compound, the “protective activity (in words)” value in assay [4] was “inactive”.

In the case of `CN/C(=N/CCSCc1nc[nH]c1C)NC#N` [[…], cimetidine, reference compound], the values for the ED50 in assay [4], in assay [5] and in assay [6] were more than 50 mg/kg, more than 50 mg/kg and more than 75 mg/kg, respectively. In assay [4], the “protective activity (in words)” value is “inactive”.
